Reference: patent publication US20190209548A1, “LINKED DIARYL COMPOUNDS WITH ANTICANCER PROPERTIES AND METHODS OF USING THE SAME” (University of Maryland, College Park, priority 2014, published 2019)

Tests used:
7bp HP•AT = experiment: ITC titration with 7 bp hairpin containing A2T2; type: binding
Description: (§1) Isothermal titration calorimetry. ITC experiments were performed using a VP-ITC calorimeter (GE-Healthcare). A typical ITC experiment involved as many as addition of 28 (10 μL) injections of as high as 1 mM ligand solutions into ˜1.5 mL of a dilute DNA solution (10 μM). Corrected titration curves were achieved by subtracting the blank titration data from the ITC-data for the ligand-DNA titrations. Corrected ITC titrations were fit with a nonlinear regression algorithm again using the CHASM ITC data analysis program developed in our laboratory.
(§2) DNA stock solutions were prepared by reconstituting the lyophilized oligonucleotide into 20 mM Tris buffer with a salt concentration of 100 mM KCl and a pH of 7.2. Approximately 2 mL of the oligonucleotide was dialyzed (1000 Mw cutoff membrane) against three changes of buffer solution (1 L, 24 h each) at 4° C. The concentrations of stock DNA solutions were verified using UV-Vis. G-Quadruplex DNAs were annealed by quickly heating to sample to 100° C., holding at 100° C. for ten minutes then slowly cooling to 5° C. over three hours period. Molar extinction coefficient of the DNAs were determined using a nearest-neighbor method for single stranded DNA. The extinction coefficients at 260 nm for the WT 27-mer bcl-2, WT 24-mer c-myc, WT 22-mer human telomere hTel sequences are 267,200 M^−1cm^−1, 248,100 M^−1cm^−1, and 228,500 M^−1cm^−1 respectively. The extinction coefficient at 260 nm for the 7 base pair hairpin with A2T2 (7 bp HP⋅AT) and the 7 base pair hairpin without A2T2 (7 bp HP) are 165,200 M^−1cm^−1 and 159,200 M^−1cm^−1 respectively. Cell culture grade water purchased from Corning was used for all experiments.

24mer c-myc = experiment: ITC titration with c-myc G-quadruplex; type: binding
Description: as §1, §2

22mer hTel K^+ = experiment: ITC titration with hTel G-quadruplex, K+ form; type: binding, human
Description: as §1
as §2, with “The extinction coefficient at 260 nm for the 7 base pair hairpin with A2T2 (7 bp HP⋅AT) and the 7 base pair hairpin without A2T2 (7 bp HP) are 165,200 M^−1cm^−1 and 159,200 M^−1cm^−1 respectively. Cell culture grade water purchased from Corning was used for all experiments.” left out

22mer hTel Na^+ = experiment: ITC titration with hTel G-quadruplex, Na+ form; type: binding, human; details: Na+ form of hTel22
Description: as §1
[…] Approximately 2 mL of the oligonucleotide was dialyzed (1000 Mw cutoff membrane) against three changes of buffer solution (1 L, 24 h each) at 4° C. The concentrations of stock DNA solutions were verified using UV-Vis. G-Quadruplex DNAs were annealed by quickly heating to sample to 100° C., holding at 100° C. for ten minutes then slowly cooling to 5° C. over three hours period. Molar extinction coefficient of the DNAs were determined using a nearest-neighbor method for single stranded DNA. The extinction coefficients at 260 nm for the WT 27-mer bcl-2, WT 24-mer c-myc, WT 22-mer human telomere hTel sequences are 267,200 M^−1cm^−1, 248,100 M^−1cm^−1, and 228,500 M^−1cm^−1 respectively. […]

8 bp AT = experiment: CD titration with AT-rich duplex DNA; type: binding; details: ligand 40 μM, 8 bp AT 0-50 μM
Description: CD experiments for binding of ligands with duplex DNA (AT-rich). CD titration experiments, monitoring in the wavelength region corresponding to the bound ligand, were performed with different concentrations of 8 bp AT (0-50 μM) added to a fixed concentration of either DMZ or Triazene-1 (40 μM).

NBM = experiment: WST-1 IC50 determination, normal bone marrow; type: cell-based, human; details: normal bone marrow, 72 hours, WST-1
Description: Cell lines and culturing. The following human cell lines were purchased from ATCC (ATCC, Manassas, Va.): prostate cancer cells (PC-3), triple negative breast cancer cells (MDA-MB-231), ovarian cancer cells (OVCAR-3), normal bone marrow (NBM) and normal fibroblast cells (MCR5A). MDA-MB-231 cells were grown at 37° C. with 5% CO2 atmosphere with DMEM (Life technologies, Carlsbad, Calif.) supplemented with heat-inactivated 10% (V/V) fetal bovine serum. OVCAR-3 and PC-3 cells were grown at 37° C. with 5% CO2 atmosphere with RPMI (Life technologies, Carlsbad, Calif.) supplemented with heat-inactivated 10% (V/V) fetal bovine serum. Cell lines were grown and maintained according to ATCC recommendations.
IC50 determination. Cell lines were seeded into 96-well plates the afternoon prior to treatment. Cell seeding number was determined by growing cells in log phase growth during drug treatment. Approximately 18 hours later, compounds were semi-serially diluted in dimethyl sulfoxide (DMSO) and then growth medium, and added to cells. Plates were incubated for 72 hours prior to addition of WST-1 (Promega, Madison Wis.). Plates were read after 4 additional hours of incubation at 37° C. using a Bio-Tek Synergy HT plate reader (Bio-Tek, Winooski, Vt.). Data was analyzed, graphed and IC50s generated using GraphPad Prism Software (Graphpad, La Jolla, Calif.).
IC50 determination: For the determination of IC50 for the azolamide class, the same protocol as described previously was followed.

[1] = test system: telomerase activity in MDA-MB-231; experiment: Telomerase activity assay (TRAPeze XL) in treated cells; type: cell-based, human
Description: Telomerase Activity Assay. MDA-MB-231 cells were routinely cultured in DMEM with 10% FBS and 1% L-glutamine. The evening prior to treatment, actively growing MDA-MB-231 cells were sub-cultured and seeded into T-25 flasks at 2×10^5 cells/flask. […] At 48 and 72 hours after treatment, cells were harvested, washed with PBS, and pelleted. Cell pellets were resuspended in 200 μl CHAPS lysis buffer with 200 units/mL RNase inhibitor, mixed by pipetting, and incubated on ice for 30 minutes. Lysates were then centrifuged at 12,000×g for 20 minutes at 4° C., and supernatants were collected, snap frozen, and stored at −80° C. until analysis. Telomerase activity was assayed using a fluorescence-based TRAPeze XL telomerase detection kit (Intergen, Purchase, N.Y.). According to manufacturer, lysates (1000 cell-equivalents) were mixed with TRAPeze XL reaction mix containing Amplifuor primers and incubated at 30° C. for 30 min to allow the elongation of “TS” primer by telomerase. Amplified telomerase products were quantitated with a fluorescence plate reader. Telomerase activity (in TPG units) was calculated by comparing the ratio of telomerase products to an internal standard for each lysate, as described by the manufacturer. Each unit of TPG (Total Product Generated) corresponds to the number of TS primers extended with at least 3 telomeric repeats by telomerase in the extract in a 30 minute incubation at 30° C.

[2] = ITC, 20 mM Tris, 100 mM KCl, pH 7.2

N=C(N)c1ccc(NN=Nc2ccccc2)cc1 [DMZ1]
K1 (7bp HP•AT; 20 mM Tris, 100 mM KCl, pH 7.2): 29000 M⁻¹
reduction in binding affinity relative to DMZ (7bp HP•AT; compare Tables 2 and 3): ~30 times
K1 (24mer c-myc; [2]): 36000 M⁻¹
K1 (22mer hTel K^+): 2100 M⁻¹
ITC interaction heat (22mer hTel Na^+): calorimetrically silent
induced CD of ligand (8 bp AT): No induced CD

N=C(N)c1ccc(N=NNc2cccc(C#Cc3ccc(F)cc3)c2)cc1 [DMZ9]
IC50 (NBM; read-out: IC50 ± SD, NBM): 5600 nM
inhibition of telomerase activity ([1]; 11 μM, 48 h or 72 h): up to 50%

N=C(N)c1ccc(/N=N/Nc2ccccc2C#Cc2ccc(F)cc2)cc1 [DMZ13]
IC50 ± SD, NBM (NBM): NE (NE means not effective. Cell viability was the same or greater than 75% of the DMSO control at 20 μM compound concentration.)
inhibition of telomerase activity ([1]; 12.4 μM, 48 h): about 20%
inhibition of telomerase activity ([1]; 12.4 μM, 72 h): about 30%

N=C(N)c1ccc(/N=N/Nc2ccc(C(=N)N)cc2)cc1 [DMZ, Diminazene aceturate, reference compound]
K2 (7bp HP•AT; 20 mM Tris, 100 mM KCl, pH 7.2): 45000 M⁻¹
K1 (24mer c-myc; [2]): 7.6e+08 M⁻¹
K2 (24mer c-myc; [2]): 1.9e+07 M⁻¹
K3 (24mer c-myc; [2]): 280000 M⁻¹
Kd (24mer c-myc; from ITC data, as low as, read-out: dissociation constant): ~1 nM
K3 (22mer hTel K^+): 55000 M⁻¹
ITC interaction heat (22mer hTel Na^+): calorimetrically silent
induced CD of ligand (8 bp AT): large positive induced CD
